The results in this text go back to patent publication US12371428B2 (Exelixis, Inc., priority 2019, dated 2025).

pIC50: −log10 of the molar value. Structures can show the parent of a compound that is named as a salt.

The target of assay [1] is Mer (phospho-Mer, MERTK-transfected 293A cells) (Homo sapiens (Human), UniProt Q12866). As to the kind of experiment: Mer autophosphorylation ELISA in transient transfected 293A cells (Example H). It is filed as cell-based. To be noted: cellular activity; Mer autophosphorylation ELISA in transient transfected 293A cells. The method, boiled down:
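IC50 from phospho-Mer ELISA of MERTK-transfected 293A cell lysates after 1 h treatment with serially diluted compound in serum-free medium.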

Assay [2] addresses Human MET (residues 956-1390) (Homo sapiens (Human), UniProt P08581). As to the kind of experiment: Human Met kinase assay, HTRF KinEase (Example D-2). The format is biochemical. To be noted: protocol of Example D-2 (other compounds); read-out: c-Met IC50. The procedure, abridged: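 MET kinase domain (956-1390), 0.1 ng/well, in buffer with 5 mM MgCl2, 1 mM DTT and 1 mM MnCl2, phosphorylated a biotinylated peptide at ATP Km for 40 min at RT; 10 concentrations, 3% DMSO final. EDTA-stopped HTRF read after 60 min; IC50 from a 4-parameter logistic fit.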

The target in assay [3] is Met (phospho-Met, HGF-stimulated PC-3 prostate cancer cells) (Homo sapiens (Human), UniProt P08581). The assay is described as follows: Met autophosphorylation ELISA in PC-3 cells (Example F). The format is cell-based. To be noted: cellular activity; Met autophosphorylation ELISA in PC-3 cells; read-out: c-Met IC50. The procedure, abridged: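 Sandwich ELISA for phospho-Met (panTyr) in PC-3 lysates. Cells starved 3 h serum-free, compound 1 h (8-pt curve, 0.3% DMSO), HGF 100 ng/mL 10 min. 100% = HGF + DMSO; 0% = HGF + reference inhibitor. IC50 by 4-parameter fit.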

Assay [4] deals with Human MER (residues 528-999) (Homo sapiens (Human), UniProt Q12866). The assay is described as follows: Human Mer kinase assay, HTRF KinEase (Example C-2). The format is biochemical. To be noted: protocol of Example C-2 (other compounds). The procedure, abridged:
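Recombinant MER 528-999 (1 ng/well) in buffer with 5 mM MgCl2 and 1 mM DTT was reacted with biotinylated peptide and ATP at Km (40 μM) for 60 min at room temperature. EDTA stop with SA-XL665 and Eu3+ TK antibody, then 665/620 nm HTRF read; IC50 from 4-parameter fit.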

Human MET (residues 956-1390), sequence (P08581 956-1390): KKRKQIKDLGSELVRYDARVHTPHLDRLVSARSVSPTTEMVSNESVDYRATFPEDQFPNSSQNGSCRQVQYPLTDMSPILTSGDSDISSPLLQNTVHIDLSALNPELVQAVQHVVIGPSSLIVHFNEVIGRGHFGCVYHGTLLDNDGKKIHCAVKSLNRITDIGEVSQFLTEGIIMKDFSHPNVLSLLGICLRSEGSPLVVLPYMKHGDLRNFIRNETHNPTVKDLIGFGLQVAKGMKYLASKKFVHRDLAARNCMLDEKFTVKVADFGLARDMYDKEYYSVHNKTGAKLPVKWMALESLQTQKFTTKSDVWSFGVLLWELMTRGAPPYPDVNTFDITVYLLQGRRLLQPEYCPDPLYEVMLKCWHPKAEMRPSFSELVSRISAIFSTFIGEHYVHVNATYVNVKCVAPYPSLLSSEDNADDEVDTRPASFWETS
Met (phospho-Met, HGF-stimulated PC-3 prostate cancer cells), sequence (P08581 25-1390): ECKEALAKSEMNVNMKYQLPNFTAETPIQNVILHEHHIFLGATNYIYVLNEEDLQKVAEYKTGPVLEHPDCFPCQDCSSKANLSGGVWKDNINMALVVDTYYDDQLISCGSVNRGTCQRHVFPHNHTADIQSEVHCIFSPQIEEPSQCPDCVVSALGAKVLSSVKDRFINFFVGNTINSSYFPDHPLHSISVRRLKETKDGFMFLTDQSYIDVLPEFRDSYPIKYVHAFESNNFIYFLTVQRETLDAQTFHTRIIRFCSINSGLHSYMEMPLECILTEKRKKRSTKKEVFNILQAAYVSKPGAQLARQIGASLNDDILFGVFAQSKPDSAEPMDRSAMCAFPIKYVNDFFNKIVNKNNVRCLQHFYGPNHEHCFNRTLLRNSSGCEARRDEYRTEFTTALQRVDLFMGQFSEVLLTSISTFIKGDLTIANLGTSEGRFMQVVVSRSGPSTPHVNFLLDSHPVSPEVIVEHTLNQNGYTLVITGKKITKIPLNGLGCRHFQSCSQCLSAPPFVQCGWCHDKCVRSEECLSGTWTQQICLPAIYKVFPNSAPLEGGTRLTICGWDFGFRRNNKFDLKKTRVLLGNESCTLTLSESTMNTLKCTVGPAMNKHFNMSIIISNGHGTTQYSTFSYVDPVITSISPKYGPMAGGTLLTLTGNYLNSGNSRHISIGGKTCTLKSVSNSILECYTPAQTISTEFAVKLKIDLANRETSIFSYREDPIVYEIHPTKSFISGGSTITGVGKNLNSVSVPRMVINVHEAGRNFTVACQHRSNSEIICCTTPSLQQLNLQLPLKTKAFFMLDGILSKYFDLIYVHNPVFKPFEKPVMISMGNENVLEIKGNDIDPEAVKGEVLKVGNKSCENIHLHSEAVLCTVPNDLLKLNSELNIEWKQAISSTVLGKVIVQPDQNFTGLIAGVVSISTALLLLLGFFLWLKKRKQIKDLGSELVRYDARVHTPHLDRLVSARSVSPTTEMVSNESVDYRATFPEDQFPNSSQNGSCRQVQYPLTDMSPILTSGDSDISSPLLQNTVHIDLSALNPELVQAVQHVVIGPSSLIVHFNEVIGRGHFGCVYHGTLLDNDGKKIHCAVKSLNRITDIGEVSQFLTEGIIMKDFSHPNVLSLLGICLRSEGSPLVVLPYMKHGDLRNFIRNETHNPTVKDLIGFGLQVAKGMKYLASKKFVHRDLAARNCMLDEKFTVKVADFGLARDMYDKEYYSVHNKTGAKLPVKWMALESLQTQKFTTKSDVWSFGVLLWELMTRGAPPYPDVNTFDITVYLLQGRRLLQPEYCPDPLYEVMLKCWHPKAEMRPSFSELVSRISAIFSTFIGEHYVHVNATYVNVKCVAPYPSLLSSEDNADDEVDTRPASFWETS
Mer (phospho-Mer, MERTK-transfected 293A cells), sequence (Q12866 21-999): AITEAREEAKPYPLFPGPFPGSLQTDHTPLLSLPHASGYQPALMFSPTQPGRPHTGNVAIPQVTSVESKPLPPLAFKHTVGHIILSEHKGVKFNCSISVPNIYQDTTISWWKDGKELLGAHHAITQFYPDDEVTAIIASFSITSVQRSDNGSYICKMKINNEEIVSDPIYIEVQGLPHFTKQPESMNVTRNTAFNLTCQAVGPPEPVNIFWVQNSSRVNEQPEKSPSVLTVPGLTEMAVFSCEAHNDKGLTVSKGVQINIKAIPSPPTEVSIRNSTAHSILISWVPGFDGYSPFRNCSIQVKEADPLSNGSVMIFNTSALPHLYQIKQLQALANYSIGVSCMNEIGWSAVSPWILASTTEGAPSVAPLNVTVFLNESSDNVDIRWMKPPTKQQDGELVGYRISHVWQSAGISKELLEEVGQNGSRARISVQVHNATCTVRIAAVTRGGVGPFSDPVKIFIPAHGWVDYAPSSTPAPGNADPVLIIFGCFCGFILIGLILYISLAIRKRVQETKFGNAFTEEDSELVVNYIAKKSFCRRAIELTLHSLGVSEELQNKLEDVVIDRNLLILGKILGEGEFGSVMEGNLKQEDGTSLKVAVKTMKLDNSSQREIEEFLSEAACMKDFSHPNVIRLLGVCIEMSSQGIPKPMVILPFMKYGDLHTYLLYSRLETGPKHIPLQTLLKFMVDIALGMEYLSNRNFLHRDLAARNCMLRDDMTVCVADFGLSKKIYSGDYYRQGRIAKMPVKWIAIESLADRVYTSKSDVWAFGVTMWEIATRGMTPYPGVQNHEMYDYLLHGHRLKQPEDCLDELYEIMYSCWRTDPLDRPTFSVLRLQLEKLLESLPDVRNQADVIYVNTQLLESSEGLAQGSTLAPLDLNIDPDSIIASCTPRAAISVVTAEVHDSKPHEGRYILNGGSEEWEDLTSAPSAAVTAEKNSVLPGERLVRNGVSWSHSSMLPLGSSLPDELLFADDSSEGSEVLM
Human MER (residues 528-999), sequence (Q12866 528-999): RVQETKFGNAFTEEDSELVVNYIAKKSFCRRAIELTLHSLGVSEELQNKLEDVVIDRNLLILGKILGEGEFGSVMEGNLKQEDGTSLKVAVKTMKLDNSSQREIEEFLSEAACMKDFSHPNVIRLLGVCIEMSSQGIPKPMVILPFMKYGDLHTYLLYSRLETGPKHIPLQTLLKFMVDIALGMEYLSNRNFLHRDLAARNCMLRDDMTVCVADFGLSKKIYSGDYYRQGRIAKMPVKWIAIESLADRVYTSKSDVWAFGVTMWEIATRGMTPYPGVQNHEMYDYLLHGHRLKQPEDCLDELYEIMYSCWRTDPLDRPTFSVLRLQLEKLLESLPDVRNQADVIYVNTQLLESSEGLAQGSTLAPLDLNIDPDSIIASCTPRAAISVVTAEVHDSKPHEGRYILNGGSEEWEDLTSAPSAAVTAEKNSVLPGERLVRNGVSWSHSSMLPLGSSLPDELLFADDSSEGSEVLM

`COc1cc2nccc(Oc3ccc(NC(=O)c4c(C)cc(C)n(-c5ccc(F)cc5C)c4=O)cc3F)c2nc1OC` [Compound 298, N-[4-[(6,7-Dimethoxy-1,5-naphthyridin-4-yl)oxy]-3-fluorophenyl]-1-(4-fluoro-2-methylphenyl)-4,6-dimethyl-2-oxopyridine-3-carboxamide]: the pIC50 in assay [1] is above 7.00; in assay [2] it was 6.52 to 7.00; in assay [3] it was above 7.00; in assay [4], above 7.00.

For the compound `COc1cc2nccc(Oc3ncc(NC(=O)c4cn(C5CC5)cc(-c5ccc(F)cc5)c4=O)cc3F)c2cc1OC` [Compound 399, 1-cyclopropyl-N-[6-(6,7-dimethoxyquinolin-4-yl)oxy-5-fluoropyridin-3-yl]-5-(4-fluorophenyl)-4-oxopyridine-3-carboxamide], the pIC50 in assay [1], in assay [2], in assay [3] and in assay [4] was above 7.00 in each case.

With `COc1ccc2nccc(Oc3ccc(NC(=O)c4c(C)cc(C)n(-c5ccc(F)cc5)c4=O)cc3)c2n1` [Compound 290, 1-(4-Fluorophenyl)-N-[4-[(6-methoxy-1,5-naphthyridin-4-yl)oxy]phenyl]-4,6-dimethyl-2-oxopyridine-3-carboxamide], the pIC50 in assay [1] is above 7.00; in assay [2], 6.52 to 7.00; in assay [3], above 7.00; in assay [4] it was above 7.00.

Turning to `COc1cnc2c(Oc3ccc(NC(=O)c4cnc(C)n(-c5ccc(F)cc5)c4=O)cc3)ccnc2c1` [Compound 266, 1-(4-Fluorophenyl)-N-[4-[(7-methoxy-1,5-naphthyridin-4-yl)oxy]phenyl]-2-methyl-6-oxopyrimidine-5-carboxamide], the pIC50 in assay [1], in assay [2], in assay [3] and in assay [4] was above 7.00 throughout.

As to `COc1ccc2nccc(Oc3ccc(NC(=O)c4cnc(C)c(-c5ccc(F)cc5)c4O)cc3)c2n1` [Compound 342, 5-(4-fluorophenyl)-4-hydroxy-N-[4-[(6-methoxy-1,5-naphthyridin-4-yl)oxy]phenyl]-6-methylpyridine-3-carboxamide], the pIC50 in assay [1], in assay [2], in assay [3] and in assay [4] was above 7.00 each time.

On to `Cc1nc(C)n(-c2ccc(F)cc2)c(=O)c1C(=O)Nc1ccc(Oc2ccnc3cc(OCc4ccccc4)cnc23)c(F)c1` [Compound 278, 1-(4-Fluorophenyl)-N-[3-fluoro-4-[(7-phenylmethoxy-1,5-naphthyridin-4-yl)oxy]phenyl]-2,4-dimethyl-6-oxopyrimidine-5-carboxamide], for which the pIC50 in assay [1], in assay [2], in assay [3] and in assay [4] was above 7.00 in each case.

Turning to `CCn1cc(C(=O)Nc2ccc(Oc3ccnc4cc(OC)cnc34)cc2)c(=O)c(-c2ccc(F)cc2)c1CO` [Compound 274, 1-Ethyl-5-(4-fluorophenyl)-6-(hydroxymethyl)-N-[4-[(7-methoxy-1,5-naphthyridin-4-yl)oxy]phenyl]-4-oxopyridine-3-carboxamide], the pIC50 in assay [1], in assay [2], in assay [3] and in assay [4] was above 7.00 in each case.

For the compound `Cc1nc(C)c(-c2ccc(F)cc2)c(O)c1C(=O)Nc1ccc(Oc2ccnc3ccc(OCCN4CCOCC4)nc23)c(F)c1` [Compound 355, N-[3-fluoro-4-[[6-(2-morpholin-4-ylethoxy)-1,5-naphthyridin-4-yl)oxy]phenyl]-5-(4-fluorophenyl)-4-hydroxy-2,6-dimethylpyridine-3-carboxamide], the pIC50 in assay [1], in assay [2], in assay [3] and in assay [4] was above 7.00 each time.

Take `COc1cnc2c(Oc3ccc(NC(=O)c4c(C)cc(C)n(-c5ccc(F)cc5)c4=O)cc3)ccnc2c1` [Compound 289, 1-(4-Fluorophenyl)-N-[4-[(7-methoxy-1,5-naphthyridin-4-yl)oxy]phenyl]-4,6-dimethyl-2-oxopyridine-3-carboxamide]: the pIC50 in assay [1], in assay [2], in assay [3] and in assay [4] was above 7.00 in each case.

`COc1cc2nccc(Oc3ccc(NC(=O)c4c(C)ccn(-c5ccc(F)cc5)c4=O)cc3F)c2nc1OC` [Compound 286, N-[4-[(6,7-Dimethoxy-1,5-naphthyridin-4-yl)oxy]-3-fluorophenyl]-1-(4-fluorophenyl)-4-methyl-2-oxopyridine-3-carboxamide]: the negative logarithm of the IC50 (pIC50) in assay [1], in assay [2], in assay [3] and in assay [4] was above 7.00 throughout.

Consider `COc1cc2nccc(Oc3ccc(NC(=O)c4cn(C)cc(-c5ccccc5)c4=O)cc3)c2nc1OC` [Compound 39, N-[4-[(6,7-Dimethoxy-1,5-naphthyridin-4-yl)oxy]phenyl]-1-methyl-4-oxo-5-phenylpyridine-3-carboxamide hydrochloride], for which the pIC50 in assay [1], in assay [2], in assay [3] and in assay [4] was above 7.00 in each case.

With `COc1cnc2c(Oc3ccc(NC(=O)c4ncc(C)n(-c5ccc(F)cc5)c4=O)cc3)ccnc2c1` [Compound 263, 4-(4-Fluorophenyl)-N-[4-[(7-methoxy-1,5-naphthyridin-4-yl)oxy]phenyl]-5-methyl-3-oxopyrazine-2-carboxamide], the pIC50 in assay [1], in assay [2], in assay [3] and in assay [4] was above 7.00 in each case.

Regarding `COc1ccc2nccc(Oc3ccc(NC(=O)c4ccc(C)n(-c5ccc(F)cc5C)c4=O)cc3)c2n1` [Compound 276, 1-(4-Fluoro-2-methylphenyl)-N-[4-[(6-methoxy-1,5-naphthyridin-4-yl)oxy]phenyl]-6-methyl-2-oxopyridine-3-carboxamide], the pIC50 in assay [1] is above 7.00; in assay [2], 6.52 to 7.00; in assay [3], 6.52 to 7.00; in assay [4], above 7.00.

With `COc1cnc2c(Oc3ccc(NC(=O)c4cn(C)cc(-c5ccccc5)c4=O)cc3F)ccnc2c1` [Compound 40, N-[3-Fluoro-4-[(7-methoxy-1,5-naphthyridin-4-yl)oxy]phenyl]-1-methyl-4-oxo-5-phenylpyridine-3-carboxamide hydrochloride], the pIC50 in assay [1], in assay [2], in assay [3] and in assay [4] was above 7.00 each time.

As to `Cc1cc(C)n(-c2ccc(F)cc2)c(=O)c1C(=O)Nc1ccc(Oc2ccnc3cccnc23)c(F)c1` [Compound 295, N-[3-Fluoro-4-(1,5-naphthyridin-4-yloxy)phenyl]-1-(4-fluorophenyl)-4,6-dimethyl-2-oxopyridine-3-carboxamide], the pIC50 in assay [1], in assay [2], in assay [3] and in assay [4] was above 7.00 in each case.

Consider `COc1cc2nccc(Oc3ccc(NC(=O)c4cn(C)c(CO)c(-c5ccc(F)cc5C)c4=O)cc3F)c2nc1OC` [Compound 282, N-[4-[(6,7-Dimethoxy-1,5-naphthyridin-4-yl)oxy]-3-fluorophenyl]-5-(4-fluoro-2-methylphenyl)-6-(hydroxymethyl)-1-methyl-4-oxopyridine-3-carboxamide], for which the pIC50 in assay [1], in assay [2], in assay [3] and in assay [4] was above 7.00 throughout.

In the case of `CCOc1c(C(=O)Nc2ccc(Oc3ccnc4cc(OC)c(OC)nc34)c(F)c2)c(=O)c(-c2ccc(F)cc2)c(C)n1C` [Compound 369, N-[4-[(6,7-dimethoxy-1,5-naphthyridin-4-yl)oxy]-3-fluorophenyl]-2-ethoxy-5-(4-fluorophenyl)-1,6-dimethyl-4-oxopyridine-3-carboxamide], the negative logarithm of the IC50 (pIC50) in assay [1] is above 7.00; in assay [2], below 6.52; in assay [3], above 7.00; in assay [4], above 7.00.

Consider `COCCOc1ccc2nccc(Oc3ccc(NC(=O)c4ccc(C)n(-c5ccc(F)cc5)c4=O)cc3F)c2n1` [Compound 350, N-[3-fluoro-4-[[6-(2-methoxyethoxy)-1,5-naphthyridin-4-yl]oxy]phenyl]-1-(4-fluorophenyl)-6-methyl-2-oxopyridine-3-carboxamide], for which the pIC50 in assay [1], in assay [2], in assay [3] and in assay [4] was above 7.00 each time.

With `COc1cc2nccc(Oc3ccc(NC(=O)c4cccn(-c5ccc(F)cc5)c4=O)cc3F)c2nc1OC` [Compound 293, N-[4-[(6,7-Dimethoxy-1,5-naphthyridin-4-yl)oxy]-3-fluorophenyl]-1-(4-fluorophenyl)-2-oxopyridine-3-carboxamide], the pIC50 in assay [1], in assay [2], in assay [3] and in assay [4] was above 7.00 each time.
